Results as given in patent publication US4251546A, “Process for killing internal helminths using certain 1,1-bis-(2-substituted-3-nitrophenyl)alkane or alkylene derivatives” (ICI Australia Limited, priority 1977, dated 1981).

Key:
[1] = test system: sheep liver fluke (Fasciola hepatica); test: Fluke egg count in faeces and adult fluke count in liver of infected sheep after a single s/c dose (Table 3); type: in vivo; conditions: for POST MORTEM RESULT No. of adult fluke: liver
Protocol: Compositions suitable for use as experimental injectable solutions were prepared by formulating the compounds as solutions of their salts either in water or in a mixture of water and ethylene glycol or water and polyethylene glycol (PEG200).
Compositions prepared by the method of Example 10 were used as a single dose to test sheep infected with sheep liver fluke (Fasciola hepatica). The number of liver fluke eggs in the faeces was measured at the time of treatment and at selected intervals up to 30 days after treatment. The sheep were killed and the number of adult fluke in the liver counted. The amount and structure of the active ingredient in each composition and the results of treatment of a sheep with that composition are given in the Table 3 below. The compositions were administered by sub-cutaneous injection (s/c).

live Fasciola hepatica = test: Minimum effective concentration against live Fasciola hepatica in Hedon-Fleig medium (Table 4); conditions: in vitro, assessed 24 hours after treatment, read-out: MINIMUM EFFECTIVE CONCENTRATION (minimum concentration required to kill Fasciola hepatica)
Protocol: The minimum effective concentration of compounds of formula I against live Fasciola hepatica was tested by the direct application of the test compound, in solution, to live Fasciola hepatica in Hedon-Fleig medium. The results are given in Table 4 where the minimum effective concentration (minimum concentration required to kill Fasciola hepatica) was assessed 24 hours after treatment with the test compound.

## COC(=O)Oc1c(C(=C(Cl)Cl)c2cc(Cl)cc([N+](=O)[O-])c2OC(=O)OC)cc(Cl)cc1[N+](=O)[O-] [Compound 18]
[1]; single dose 12.0 mg/kg
  FAECAL EGG COUNT, day 7: 60 Eggs/g faeces
  FAECAL EGG COUNT, day 14: 0 Eggs/g faeces
  POST MORTEM RESULT No. of adult fluke: 1

## CC(C)(c1cc(F)cc([N+](=O)[O-])c1O)c1cc(F)cc([N+](=O)[O-])c1O [Compound 19, 2,2'-Isopropylidene bis(4-fluoro-6-nitrophenol)]
[1]; single dose 12.5 mg/kg
  FAECAL EGG COUNT, day 7: 210 Eggs/g faeces
  FAECAL EGG COUNT, day 14: 180 Eggs/g faeces

## COc1cc(Cl)ccc1COC(c1cc(Cl)cc([N+](=O)[O-])c1O)c1cc(Cl)cc([N+](=O)[O-])c1O [Compound 43]
Live Fasciola hepatica
  minimal effective concentration: 5 µg/mL

## O=[N+]([O-])c1cc(Cl)cc(C(Oc2cccc(F)c2)c2cc(Cl)cc([N+](=O)[O-])c2O)c1O [Compound 34]
Live Fasciola hepatica
  minimal effective concentration: 5 µg/mL

## O=[N+]([O-])c1cc(Cl)cc(C(Oc2ccccc2)c2cc(Cl)cc([N+](=O)[O-])c2O)c1O [Compound 32]
Live Fasciola hepatica
  minimal effective concentration: 5 µg/mL

## N#Cc1ccc(OC(c2cc(Cl)cc([N+](=O)[O-])c2O)c2cc(Cl)cc([N+](=O)[O-])c2O)cc1 [Compound 33]
Live Fasciola hepatica
  minimal effective concentration: 5 µg/mL

## CC(=O)Oc1c(C(=C(Cl)Cl)c2cc(Cl)cc([N+](=O)[O-])c2OC(C)=O)cc(Cl)cc1[N+](=O)[O-] [Compound 17]
[1]; single dose 12.0 mg/kg
  FAECAL EGG COUNT, day 7: 110 Eggs/g faeces
  FAECAL EGG COUNT, day 14: 0 Eggs/g faeces
  POST MORTEM RESULT No. of adult fluke: 0

## CC(C)(c1cc(F)cc([N+](=O)[O-])c1O)c1cc(Cl)cc([N+](=O)[O-])c1O [Compound 20, 2-(5-chloro-2-hydroxy-3-nitrophenyl)-2-(5-fluoro-2-hydroxy-3-nitrophenyl)propane]
[1]; single dose 12.5 mg/kg
  FAECAL EGG COUNT, day 7: 400 Eggs/g faeces
  FAECAL EGG COUNT, day 14: 140 Eggs/g faeces

## O=[N+]([O-])c1cc(Cl)cc(Cc2cc(Cl)cc([N+](=O)[O-])c2O)c1O [Compound 1]
[1]; single dose 12.5 mg/kg
  FAECAL EGG COUNT, day 7: 0 Eggs/g faeces
  FAECAL EGG COUNT, day 14: 50 Eggs/g faeces
  POST MORTEM RESULT No. of adult fluke: 0
[1]; single dose 12.5 mg/kg, day 30
  FAECAL EGG COUNT, day 30: 0 Eggs/g faeces

## CCCSC(c1cc(Cl)cc([N+](=O)[O-])c1O)c1cc(Cl)cc([N+](=O)[O-])c1O [Compound 45]
[1]; single dose 12.0 mg/kg
  FAECAL EGG COUNT, day 7: 10 Eggs/g faeces
  FAECAL EGG COUNT, day 14: 0 Eggs/g faeces
  POST MORTEM RESULT No. of adult fluke: 1

## O=[N+]([O-])c1cc(F)cc(C(=C(Cl)Cl)c2cc(F)cc([N+](=O)[O-])c2O)c1O [Compound 16]
[1]; single dose 12.5 mg/kg
  FAECAL EGG COUNT, day 7: 10 Eggs/g faeces
  FAECAL EGG COUNT, day 14: 10 Eggs/g faeces
  POST MORTEM RESULT No. of adult fluke: 0

## O=[N+]([O-])c1cc(Cl)cc(C(OCc2ccc(Cl)cc2)c2cc(Cl)cc([N+](=O)[O-])c2O)c1O [Compound 38]
Live Fasciola hepatica
  minimal effective concentration: 1 µg/mL

## O=[N+]([O-])c1cccc(COC(c2cc(Cl)cc([N+](=O)[O-])c2O)c2cc(Cl)cc([N+](=O)[O-])c2O)c1 [Compound 39]
Live Fasciola hepatica
  minimal effective concentration: 0.5 µg/mL

## CC(c1cc(Cl)cc([N+](=O)[O-])c1O)c1cc(Cl)cc([N+](=O)[O-])c1O [Compound 7]
[1]; single dose 5.0 mg/kg
  FAECAL EGG COUNT, day 7: 0 Eggs/g faeces
  FAECAL EGG COUNT, day 14: 50 Eggs/g faeces
[1]; single dose 8.0 mg/kg
  FAECAL EGG COUNT, day 7: 0 Eggs/g faeces
  FAECAL EGG COUNT, day 14: 0 Eggs/g faeces
  POST MORTEM RESULT No. of adult fluke: 0
[1]; single dose 12.5 mg/kg
  FAECAL EGG COUNT, day 7: 20 Eggs/g faeces
  FAECAL EGG COUNT, day 14: 0 Eggs/g faeces
  POST MORTEM RESULT No. of adult fluke: 0
[1]; single dose 20.0 mg/kg
  FAECAL EGG COUNT, day 7: 0 Eggs/g faeces
  POST MORTEM RESULT No. of adult fluke: 0
[1]; single dose 20.0 mg/kg, day 13
  FAECAL EGG COUNT, day 13: 0 Eggs/g faeces
